Converted amounts (≈) assume the structure as drawn.
Columns and labels:
[1] = Solubility study of Compound (II) in lipid excipients and surfactants; assay type: physicochemical; settings: for solubility: thermodynamic from solid
Method: Compound (II) HCl and Compound (II) free base was weighed into vials and the appropriate amount of excipient was added to achieve the desired concentration. Heating and sonication was used, if necessary, to achieve clear solutions. Limits of solubility of Compound (II) free base and Compound (II) HCl (amorphous form) are noted in Table 1.

[2] = Further solubility study in Maisine 35-1:Gelucire 44/14:Lauroglycol 90 mixtures; settings: 40-80% (w/w) Maisine 35-1; 20-40% Gelucire 44/14; 0-20% Lauroglycol 90
Method: (§1) A further solubility study of Compound (II) was conducted using lipid excipients and surfactants. Maisine 35-1 (glycerol linoleates):Gelucire 44/14 (lauroyl macrogol-32 glycerides):Lauroglycol 90 (propylene glycol monolaurate) mixtures were tested to explore the optimal combination. The following ranges of each substance were tested: (1) 40-80% (w/w) Maisine 35-1; (2) 20-40% (w/w) Gelucire 44/14; and (3) 0-20% (w/w) Lauroglycol 90.

[3] = Binary stressed-stability / compatibility study with excipients; assay type: physicochemical; settings: in contact with Maisine 35-1 and Gelucire 44/14 (70:30 w/w)
Description: The compatibility of Compound ([…]) with the following solubilizing/emulsifying excipients: Maisine 35-1; Gelucire 44/14; sodium oleate; sodium stearate; vitamin E TPGS; lysine; and sodium EDTA.

physchem = settings: oil or lipid
Method: as §1

With `C[C@H](CCOc1cccc(CC(=O)O)c1)N(Cc1cccc(C(F)(F)F)c1Cl)CC(c1ccccc1)c1ccccc1.Cl` [Compound (II) HCl salt] the “Limit of solubility in Capmul MCM” value ([1]; excipient Capmul MCM) was 50 mg/mL, the “Limit of solubility in Capryol 90” value ([1]; excipient Capryol 90) was 150 mg/mL and the “Limit of solubility in Capryol PGMC” value ([1]; excipient Capryol PGMC) was 150 mg/mL. The “Limit of solubility in Cremophor EL” value ([1]; excipient Cremophor EL) was 150 mg/mL, the “Limit of solubility in Cremophor RH-40” value ([1]; excipient Cremophor RH-40) was 150 mg/mL and the “Limit of solubility in Ethanol” value ([1]; excipient Ethanol) was 200 mg/mL. The “Limit of solubility in Gelucire 44/14” value ([1]; excipient Gelucire 44/14) was 100 mg/mL, the “Limit of solubility in Gelucire 50/13” value ([1]; excipient Gelucire 50/13) was 50 mg/mL and the “Limit of solubility in Labrafil M 1944 CS” value ([1]; excipient Labrafil M 1944 CS) was 25 mg/mL. For the same compound, the “Limit of solubility in Labrafil M 2125 CS” value ([1]; excipient Labrafil M 2125 CS) was 25 mg/mL, the “Limit of solubility in Labrafil M 2130 CS” value ([1]; excipient Labrafil M 2130 CS) was 25 mg/mL and the “Limit of solubility in Labrasol” value ([1]; excipient Labrasol) was 150 mg/mL. For the same compound, the “Limit of solubility in Lauroglycol 90” value ([1]; excipient Lauroglycol 90) was 150 mg/mL, the “Limit of solubility in Lauroglycol FCC” value ([1]; excipient Lauroglycol FCC) was 100 mg/mL and the “Limit of solubility in Maisine 35-1” value ([1]; excipient Maisine 35-1) was 150 mg/mL. For the same compound, the “Limit of solubility in PEG-200” value ([1]; excipient PEG-200) was 200 mg/mL, the “Limit of solubility in PEG-300” value ([1]; excipient PEG-300) was 200 mg/mL and the “Limit of solubility in PEG-400” value ([1]; excipient PEG-400) was 200 mg/mL. The “Limit of solubility in Peceol” value ([1]; excipient Peceol) was 150 mg/mL, the “Limit of solubility in Phosal 50-PG” value ([1]; excipient Phosal 50-PG) was 200 mg/mL and the “Limit of solubility in Phosal 53 MCT” value ([1]; excipient Phosal 53 MCT) was 150 mg/mL. For the same compound, the “Limit of solubility in Plurol Oleique CC 497” value ([1]; excipient Plurol Oleique CC 497) was 50 mg/mL, the “Limit of solubility in Propylene Glycol” value ([1]; excipient Propylene Glycol) was 200 mg/mL and the “Limit of solubility in Transcutol” value ([1]; excipient Transcutol) was 150 mg/mL. The “Limit of solubility in Tween-20” value ([1]; excipient Tween-20) was 200 mg/mL, the “Limit of solubility in Tween-80” value ([1]; excipient Tween-80) was 200 mg/mL and the “Limit of solubility in VitE-TPGS” value ([1]; excipient VitE-TPGS) was 150 mg/mL. The “Solubility in Maisine 35-1:Gelucire 44/14:Lauroglycol 90 mixtures” value [2] was 150 to 200 mg/mL.
`C[C@H](CCOc1cccc(CC(=O)O)c1)N(Cc1cccc(C(F)(F)F)c1Cl)CC(c1ccccc1)c1ccccc1` [Compound (II), 2-{3-[(3R)-3-({[2-chloro-3-(trifluoromethyl)phenyl]methyl}(2,2-diphenylethyl)amino)butoxy]phenyl}acetic acid] showed a solubility ([1]; aqueous with cosolvent or surfactant or cyclodextrin, excipient Tween-20, read-out: Limit of solubility in Tween-20) of over 200 mg/mL, a solubility ([1]; aqueous with cosolvent or surfactant or cyclodextrin, excipient Tween-80, read-out: Limit of solubility in Tween-80) of over 200 mg/mL and a solubility ([1]; aqueous with cosolvent or surfactant or cyclodextrin, excipient VitE-TPGS, read-out: Limit of solubility in VitE-TPGS) of over 200 mg/mL. It also gave a solubility ([1]; oil or lipid, excipient Capryol 90, read-out: Limit of solubility in Capryol 90) of over 200 mg/mL, a solubility ([1]; oil or lipid, excipient Capryol PGMC, read-out: Limit of solubility in Capryol PGMC) of over 200 mg/mL and a solubility ([1]; oil or lipid, excipient Cremophor EL, read-out: Limit of solubility in Cremophor EL) of over 200 mg/mL. It also gave a solubility ([1]; oil or lipid, excipient Cremophor RH-40, read-out: Limit of solubility in Cremophor RH-40) of over 200 mg/mL, a solubility ([1]; oil or lipid, excipient Gelucire 44/14, read-out: Limit of solubility in Gelucire 44/14) of over 200 mg/mL and a solubility ([1]; oil or lipid, excipient Gelucire 50/13, read-out: Limit of solubility in Gelucire 50/13) of 150 mg/mL (≈ 252 mM). For the same compound, the solubility ([1]; oil or lipid, excipient Labrafac Lipo WL 1349, heating and sonication if necessary, read-out: Limit of solubility in Labrafac Lipo WL 1349) was over 200 mg/mL, the solubility ([1]; oil or lipid, excipient Labrafac PG, read-out: Limit of solubility in Labrafac PG) was over 200 mg/mL and the solubility ([1]; oil or lipid, excipient Labrafil M 1944 CS, read-out: Limit of solubility in Labrafil M 1944 CS) was over 200 mg/mL. The solubility ([1]; oil or lipid, excipient Labrafil M 2125 CS, read-out: Limit of solubility in Labrafil M 2125 CS) was over 200 mg/mL, the solubility ([1]; oil or lipid, excipient Labrafil M 2130 CS, read-out: Limit of solubility in Labrafil M 2130 CS) was over 200 mg/mL and the solubility ([1]; oil or lipid, excipient Labrasol, read-out: Limit of solubility in Labrasol) was over 200 mg/mL. The solubility ([1]; oil or lipid, excipient Lauroglycol 90, read-out: Limit of solubility in Lauroglycol 90) was over 200 mg/mL, the solubility ([1]; oil or lipid, excipient Lauroglycol FCC, read-out: Limit of solubility in Lauroglycol FCC) was over 200 mg/mL and the solubility ([1]; oil or lipid, excipient Maisine 35-1, read-out: Limit of solubility in Maisine 35-1) was over 200 mg/mL. The solubility ([1]; oil or lipid, excipient Peceol, read-out: Limit of solubility in Peceol) was over 200 mg/mL, the solubility ([1]; oil or lipid, excipient Phosal 50-PG, read-out: Limit of solubility in Phosal 50-PG) was over 200 mg/mL and the solubility ([1]; oil or lipid, excipient Phosal 53 MCT, read-out: Limit of solubility in Phosal 53 MCT) was over 200 mg/mL. It also gave a solubility ([1]; oil or lipid, excipient Plurol Oleique CC 497, read-out: Limit of solubility in Plurol Oleique CC 497) of over 200 mg/mL, a solubility ([1]; organic solvent or mixture, excipient Ethanol, read-out: Limit of solubility in Ethanol) of over 200 mg/mL and a solubility ([1]; organic solvent or mixture, excipient PEG-200, read-out: Limit of solubility in PEG-200) of over 200 mg/mL. It also gave a solubility ([1]; organic solvent or mixture, excipient PEG-300, read-out: Limit of solubility in PEG-300) of over 200 mg/mL, a solubility ([1]; organic solvent or mixture, excipient PEG-400, read-out: Limit of solubility in PEG-400) of over 200 mg/mL and a solubility ([1]; organic solvent or mixture, excipient Propylene Glycol, read-out: Limit of solubility in Propylene Glycol) of over 200 mg/mL. The solubility ([1]; organic solvent or mixture, excipient Transcutol, read-out: Limit of solubility in Transcutol) was over 200 mg/mL, the Degradation ([3]; after 15 days of storage at −20° C.) was “No significant degradation” and the Short-term stability ([3]; room temperature (about 20° C.) for 8 days) was “acceptable”. The Degradation ([3]; room temperature, by 15 days) was “approximately 9%” and the solubility (physchem) was over 250 mg/mL.

— patent US11629118B2, “Formulations with improved stability” (INSPIRNA, INC., priority 2017, dated 2023)
